Counter-ions that a name gives are not always drawn.
Key:
h5-HT4b = molecular target: T1, h5-HT4b (Homo sapiens, UniProt Q13639); experiment: 5HT4 antagonism: [3H]GR113808 binding to membranes of h5-HT4b-HEK 293 clone 9 cells; conditions: [3H]GR113808 0.1 nM, h5-HT4b-HEK 293 membranes, 30 min at 25° C.
T1 construct: expressed in transfected cells; host or cells: HEK 293 (clone 9), membrane preparation
Procedure: h5-HT4b-HEK 293 clone 9 cells were cultured in 150 mm Petri dishes and washed twice with cold PBS. The cells were then scraped from the plates and suspended in 50 mM Tris-HCl buffer, pH 7.4 and harvested by centrifugation at 23,500 rpm for 10 minutes. The pellet was resuspended in 5 mM Tris-HCl, pH 7.4 and homogenized with an Ultra Turrax homogenizer. The membranes were collected by centrifugation at 30,000 rpm for 20 min, resuspended in 50 mM Tris-HCl pH 7.4 and stored at −80° C. For the experiment, assay mixtures (0.5 ml) contained 50 μl of the tritiated ligand (5-HT4 antagonist [^3H]GR113808 0.1 nM) and 0.4 ml membrane preparation (15 μg protein/ml). 50 μl of 10% DMSO was added for total binding. 50 μl of 1 μM of (+)-trans-(1-butyl-3-hydroxy4-piperidinyl)methyl 8-amino-7-chloro-2,3-dihydro-1,4-benzodioxin-5-carboxylate (a proprietary 5HT4 agonist of Janssen Pharmaceutica) was added for determination of non-specific binding.
The [^3H]GR113808 assay buffer was 50 mM HEPES-NaOH, pH 7.4. The mixtures were incubated for 30 min at 25° C. The incubation was terminated by filtration over a Unifilter 96 GF/B presoaked in 0.1% polyethylenimine, followed by six washing steps with 50 mM HEPES-NaOH, pH 7.4.

T1 sequence (Q13639 whole entry): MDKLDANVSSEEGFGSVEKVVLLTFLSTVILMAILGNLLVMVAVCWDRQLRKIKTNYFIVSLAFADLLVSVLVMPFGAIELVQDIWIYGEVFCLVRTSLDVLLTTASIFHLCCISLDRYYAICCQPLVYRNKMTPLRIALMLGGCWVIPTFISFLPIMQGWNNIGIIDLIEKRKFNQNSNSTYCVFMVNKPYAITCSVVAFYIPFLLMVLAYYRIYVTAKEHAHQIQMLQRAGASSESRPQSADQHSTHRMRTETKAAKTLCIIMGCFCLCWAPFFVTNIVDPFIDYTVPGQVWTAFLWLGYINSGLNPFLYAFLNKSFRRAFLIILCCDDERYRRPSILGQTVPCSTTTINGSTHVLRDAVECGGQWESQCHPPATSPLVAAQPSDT

| SMILES | IC50 (h5-HT4b) [nM] | melting point [°C] |
| --- | --- | --- |
| COc1ccc(C(=O)NC[C@@H]2CCN(CCCC(N)=O)C[C@H]2OC)c2c1OCCO2 [compound 140] | 33.9 | 180 |
| CNCCCCN1CC[C@@H](CNC(=O)c2ccc(OC)c3c2OCCO3)[C@H](O)C1 [compound 118] | 6.76 | – |
| CNCCCCN1CC[C@@H](CNC(=O)c2ccc(C)c3c2OCCCO3)[C@H](O)C1 [compound 4] | 6.92 | – |
| CNCCCN1CC[C@@H](CNC(=O)c2cc(Cl)c(OC)c3c2OCCO3)[C@H](OC)C1 [compound 78] | 174 | – |
| COc1c(Cl)cc(C(=O)NC[C@@H]2CCNC[C@H]2O)c2c1OCCO2 [compound 8] | 77.6 | – |
| COc1c(Cl)cc(C(=O)NC[C@@H]2CCN(CCn3ccn(C(C)C)c3=O)C[C@H]2OC)c2c1OCCCO2 [compound 79] | 229 | – |
| COc1ccc(C(=O)NC[C@@H]2CCN(CCCC#N)C[C@H]2OC)c2c1OCCCO2 [compound 112] | 72.4 | – |
| COc1ccc(C(=O)NC[C@H]2CCN(CCCC(N)=O)C[C@H]2O)c2c1OCCCO2 [compound 144] | 282 | – |
| CCOc1ccc(C(=O)NC[C@@H]2CCN(CCCC(N)=O)C[C@H]2O)c2c1OCCCO2 [compound 146] | 5.89 | – |
| CO[C@@H]1CN(CCCC#N)CC[C@H]1CNC(=O)c1cc(Cl)c(Br)c2c1OCCCO2 [compound 28] | 6.31 | – |
| COc1c(Cl)cc(C(=O)NC[C@@H]2CCN(CC3CCCO3)C[C@H]2OC)c2c1OCCCO2 (stereo partly drawn) [compound 73] | 18.2 | – |
| COCCCCN1CCC(O)(CNC(=O)c2ccc(OC)c3c2OCCCO3)CC1 [compound 135] | 182 | – |
| CNCCCN1CC[C@@H](CNC(=O)c2cc(Cl)c(OC)c3c2OCCCO3)[C@H](O)C1 [compound 36] | 38 | – |
| COc1c(Cl)cc(C(=O)NC[C@@H]2CCN(CCCO)C[C@H]2O)c2c1OCCO2 [compound 5] | 5.5 | – |
| COc1c(Cl)cc(C(=O)NC[C@@H]2CCN(CC3OCCO3)C[C@H]2O)c2c1OCCCO2 [compound 18] | 24 | – |
| O=C(NC[C@@H]1CCN(CC2OCCO2)C[C@H]1O)c1cc(Cl)c(Br)c2c1OCCCO2 [compound 26] | 6.31 | – |
| CCCCN1CCC(O)(CNC(=O)c2ccc(OC)c3c2OCCCO3)CC1 [compound 136] | 91.2 | – |
| COc1c(Cl)cc(C(=O)NC[C@@H]2CCN(CCCO)C[C@H]2OC)c2c1OCCCO2 [compound 57] | 36.3 | – |
| COc1c(Cl)cc(C(=O)NC[C@@H]2CCN(CCC3OCCO3)C[C@H]2O)c2c1OCCCO2 [compound 29] | 6.46 | – |
| COc1c(Cl)cc(C(=O)NC[C@@H]2CCN(CCOCCO)C[C@H]2OC)c2c1OCCO2 [compound 55] | 166 | – |

| SMILES | IC50 (h5-HT4b) [nM] | melting point [°C] |
| --- | --- | --- |
| COc1c(Cl)cc(C(=O)NC[C@@H]2CCN(CCn3ccn(C(C)C)c3=O)C[C@H]2O)c2c1OCCO2 [compound 60] | 35.5 | – |
| COc1c(Cl)cc(C(=O)NC[C@@H]2CCN(CC3OCCO3)C[C@H]2OC)c2c1OCCCO2 [compound 66] | 132 | – |
| COc1ccc(C(=O)NC[C@@H]2CCN(CCOCCO)C[C@H]2O)c2c1OCCCO2 [compound 127] | 13.8 | – |
| COc1c(Cl)cc(C(=O)NC[C@@H]2CCNC[C@H]2OC)c2c1OCCO2 [compound 52] | 457 | – |
| CCCCN1CC[C@@H](CNC(=O)c2cc(Cl)c(OC)c3c2OCCO3)[C@H](OC)C1 [compound 77] | 8.91 | – |
| COCCCCN1CC[C@H](CNC(=O)c2ccc(OC)c3c2OCCCO3)[C@H](O)C1 [compound 142] | 162 | – |
| CNCCCCN1CC[C@@H](CNC(=O)c2ccc(C)c3c2OCCCO3)[C@H](O)C1 (as salt: salt) [compound 4] | – | 120 |
| CCN1CC[C@@H](CNC(=O)c2ccc(OC)c3c2OCCCO3)[C@H](OC)C1 [compound 120] | 28.2 | – |
| COc1ccc(C(=O)NC[C@@H]2CCNC[C@H]2O)c2c1OCCCO2 [compound 97] | 56.2 | – |
| CNCCCCN1CC[C@@H](CNC(=O)c2cc(Cl)c(OC)c3c2OCCCO3)[C@H](OC)C1 [compound 61] | 85.1 | – |
| CCCCN1CC[C@@H](CNC(=O)c2cc(Cl)c(OC)c3c2OCCCO3)[C@H](OC)C1 [compound 71] | 10.7 | – |
| CO[C@@H]1CN(CCn2ccn(C(C)C)c2=O)CC[C@H]1CNC(=O)c1cc(Cl)c(Cl)c2c1OCCCO2 [compound 82] | 8.32 | – |
| O=C(NC[C@@H]1CCNC[C@H]1O)c1cc(Cl)c(Br)c2c1OCCCO2 [compound 11] | 5.89 | – |
| COc1c(Cl)cc(C(=O)NC[C@@H]2CCNC[C@H]2O)c2c1OCCCO2 [compound 12] | 43.7 | – |
| COc1c(Cl)cc(C(=O)NC[C@@H]2CCN(CCOCCO)C[C@H]2OC)c2c1OCCCO2 [compound 68] | 93.3 | – |
| CNCCCN1CC[C@@H](CNC(=O)c2cc(Cl)c(Br)c3c2OCCCO3)[C@H](O)C1 [compound 80] | 6.31 | – |
| COCCCN1CC[C@@H](CNC(=O)c2ccc(OC)c3c2OCCO3)[C@H](O)C1 [compound 115] | 11.7 | – |
| COc1ccc(C(=O)NC[C@@H]2CCN(CCCC(N)=O)C[C@H]2O)c2c1OCCCO2 [compound 128] | 7.24 | – |
| CNCCN1CC[C@@H](CNC(=O)c2cc(Cl)c(OC)c3c2OCCO3)[C@H](OC)C1 [compound 92] | 490 | – |
| COc1c(Cl)cc(C(=O)NC[C@@H]2CCN(CCCO)C[C@H]2OC)c2c1OCCO2 [compound 53] | 20 | – |

More lines, now with the values ahead:

| IC50 (h5-HT4b) [nM] | melting point [°C] | SMILES |
| --- | --- | --- |
| 1.74 | 127 | CCCCN1CC[C@@H](CNC(=O)c2cc(Cl)c(OC)c3c2OCCO3)[C@H](O)C1 [compound 7] |
| 1.17 | 160 | Cc1ccc(C(=O)NC[C@@H]2CCN(CCCC(N)=O)C[C@H]2O)c2c1OCCCO2 [compound 109] |
| 2.04 | – | CNCCCCN1CC[C@@H](CNC(=O)c2cc(Cl)c(Cl)c3c2OCCCO3)[C@H](O)C1 [compound 90] |
| 2.69 | – | O=C(NC[C@@H]1CCN(CCCO)C[C@H]1O)c1cc(Cl)c(Cl)c2c1OCCCO2 [compound 19] |
| 1 | – | COc1c(Cl)cc(C(=O)NC[C@@H]2CCN(CCCC#N)C[C@H]2O)c2c1OCCCO2 [compound 34] |
| 4.07 | – | COc1ccc(C(=O)NC[C@@H]2CCN(CCCCC(N)=O)C[C@H]2O)c2c1OCCCO2 [compound 122] |
| 2.09 | – | CCCCN1CC[C@@H](CNC(=O)c2cc(Cl)c(Cl)c3c2OCCCO3)[C@H](OC)C1 [compound 81] |
| 4.47 | – | CNCCCCN1CC[C@@H](CNC(=O)c2cc(Cl)c(Br)c3c2OCCCO3)[C@H](OC)C1 [compound 65] |
| 0.331 | – | CCCCN1CC[C@@H](CNC(=O)c2ccc(OC)c3c2OCCCO3)[C@H](O)C1 [compound 100] |
| 0.871 | – | CCN1CC[C@@H](CNC(=O)c2ccc(C)c3c2OCCCO3)[C@H](O)C1 [compound 111] |
| 0.912 | – | CNCCCCN1CC[C@@H](CNC(=O)c2cc(Cl)c(Cl)c3c2OCCCO3)[C@H](OC)C1 [compound 86] |
| 2.24 | – | O=C(NC[C@@H]1CCN(CCC2OCCO2)C[C@H]1O)c1cc(Cl)c(Cl)c2c1OCCCO2 [compound 88] |
| 2.09 | – | N#CCCCN1CC[C@@H](CNC(=O)c2cc(Cl)c(Cl)c3c2OCCCO3)[C@H](O)C1 [compound 89] |
| 3.24 | – | COc1ccc(C(=O)NC[C@@H]2CCN(CCCO)C[C@H]2O)c2c1OCCCO2 [compound 113] |
| 3.89 | – | COCCCN1CC[C@@H](CNC(=O)c2cc(Cl)c(Cl)c3c2OCCCO3)[C@H](O)C1 [compound 37] |
| 4.9 | – | O=C(NC[C@@H]1CCN(CCC2OCCO2)C[C@H]1O)c1cc(Cl)c(Br)c2c1OCCCO2 [compound 27] |
| 0.813 | – | Cc1ccc(C(=O)NC[C@@H]2CCN(CCCCOc3ccc(S(N)(=O)=O)cc3)C[C@H]2O)c2c1OCCCO2 [compound 106] |
| 3.89 | – | O=C(NC[C@@H]1CCN(CCOCCO)C[C@H]1O)c1cc(Cl)c(Cl)c2c1OCCCO2 [compound 21] |
| 1.2 | – | COc1c(Cl)cc(C(=O)NC[C@@H]2CCN(CC3CCCO3)C[C@H]2O)c2c1OCCCO2 (stereo partly drawn) [compound 33] |
| 3.8 | – | CCCCN1CC[C@@H](CNC(=O)c2cc(Cl)c(OC)c3c2OCCCO3)[C@H](O)C1 [compound 17] |
| 4.57 | – | COc1ccc(C(=O)NC[C@@H]2CCN(CCCCO)C[C@H]2O)c2c1OCCCO2 [compound 121] |
| 2.95 | – | COCCCN1CC[C@@H](CNC(=O)c2cc(Cl)c(Br)c3c2OCCCO3)[C@H](O)C1 [compound 38] |
| 2.24 | – | COCCCN1CC[C@@H](CNC(=O)c2ccc(F)c3c2OCCCO3)[C@H](O)C1 [compound 132] |
| 3.02 | – | N#CCCCN1CC[C@@H](CNC(=O)c2cc(Cl)c(Br)c3c2OCCCO3)[C@H](O)C1 [compound 10] |
| 2.45 | – | COc1ccc(C(=O)NC[C@@H]2CCN(CCC3OCCO3)C[C@H]2O)c2c1OCCCO2 [compound 101] |
| 3.72 | – | COCCCN1CC[C@@H](CNC(=O)c2cc(Cl)c(Cl)c3c2OCCCO3)[C@H](OC)C1 [compound 59] |
| 3.09 | – | COCCCN1CC[C@@H](CNC(=O)c2ccc(OC)c3c2OCCCO3)[C@H](O)C1 [compound 110] |
| 0.977 | – | Cc1ccc(C(=O)NC[C@@H]2CCN(CCCNS(C)(=O)=O)C[C@H]2O)c2c1OCCCO2 [compound 96] |
| 5.25 | – | COc1ccc(C(=O)NC[C@@H]2CCN(CCCO)C[C@H]2O)c2c1OCCO2 [compound 116] |

From patent US7635706B2, “5HT4-antagonistic 4-(aminomethyl)-piperidine benzamides” (Janssen Pharmaceutica NV, priority 2003, dated 2009)
